Measured values from patent publication US6387943B1, “Vancoresmycin, a process for its production and its use as a pharmaceutical” (Aventis Pharma Deutschland GmbH, priority 1998, dated 2002).
Converted amounts (≈) assume the structure as drawn.

How the values were obtained:
[1] = tested on: Staphylococcus aureus 209P; experiment: Minimum inhibitory concentration (MIC); assay type: cell-based
S. aureus 20240 = experiment: Minimum inhibitory concentration (MIC); assay type: cell-based; conditions: Staphylococcus aureus
S. aureus E-710 = experiment: Minimum inhibitory concentration (MIC); assay type: cell-based; conditions: Staphylococcus aureus, E710
S. aureus SG511 = experiment: Minimum inhibitory concentration (MIC); assay type: cell-based; conditions: Staphylococcus aureus
S. aureus 3066 = experiment: Minimum inhibitory concentration (MIC); assay type: cell-based; conditions: Staphylococcus aureus; S. aureus 3066 (resistant strain to methicillin)
S. warneri 6563 II (2) = experiment: Minimum inhibitory concentration (MIC); assay type: cell-based; conditions: Staphylococcus warneri
S. aureus E-712 = experiment: Minimum inhibitory concentration (MIC); assay type: cell-based; conditions: Staphylococcus aureus, E712
S. aureus 20424 = experiment: Minimum inhibitory concentration (MIC); assay type: cell-based; conditions: Staphylococcus aureus
S. aureus Chantot 31153 = experiment: Minimum inhibitory concentration (MIC); assay type: cell-based; conditions: Staphylococcus aureus, CHANTOT31153
S. aureus Wein 11 = experiment: Minimum inhibitory concentration (MIC); assay type: cell-based; conditions: Staphylococcus aureus, WEIN11
S. aureus Wein 12 = experiment: Minimum inhibitory concentration (MIC); assay type: cell-based; conditions: Staphylococcus aureus, WEIN12
S. aureus 503(Mers) = experiment: Minimum inhibitory concentration (MIC); assay type: cell-based
S. aureus Brussel 4115 = experiment: Minimum inhibitory concentration (MIC); assay type: cell-based; conditions: Staphylococcus aureus, BRUSSEL4115
S. aureus MLS-16 = experiment: Minimum inhibitory concentration (MIC); assay type: cell-based; conditions: Staphylococcus aureus, MLS16
S. haemolyticus 809 = experiment: Minimum inhibitory concentration (MIC); assay type: cell-based; conditions: Staphylococcus haemolyticus
S. epidermidis 825 = experiment: Minimum inhibitory concentration (MIC); assay type: cell-based; conditions: Staphylococcus epidermidis
S. epidermidis 823 = experiment: Minimum inhibitory concentration (MIC); assay type: cell-based; conditions: Staphylococcus epidermidis
S. epidermidis 607 = experiment: Minimum inhibitory concentration (MIC); assay type: cell-based; conditions: Staphylococcus epidermidis
S. epidermidis 5747 IW = experiment: Minimum inhibitory concentration (MIC); assay type: cell-based; conditions: Staphylococcus epidermidis
[2] = tested on: Enterococcus faecalis ATCC 29212; experiment: Minimum inhibitory concentration (MIC); assay type: cell-based; conditions: ATCC29212
Ent. faecalis D 21777 = experiment: Minimum inhibitory concentration (MIC); assay type: cell-based; conditions: Enterococcus faecalis, D21777
Ent. faecalis D 23241 = experiment: Minimum inhibitory concentration (MIC); assay type: cell-based; conditions: Enterococcus faecalis, D23241
Ent. faecalis D 756 = experiment: Minimum inhibitory concentration (MIC); assay type: cell-based; conditions: Enterococcus faecalis, D756
Ent. faecalis D 26777 = experiment: Minimum inhibitory concentration (MIC); assay type: cell-based; conditions: Enterococcus faecalis, D26777
Ent. faecalis D 7F = experiment: Minimum inhibitory concentration (MIC); assay type: cell-based; conditions: Enterococcus faecalis, D7F
Ent. faecium D-65 = experiment: Minimum inhibitory concentration (MIC); assay type: cell-based; conditions: Enterococcus faecium, D65
Ent. faecium 5601 (H) = experiment: Minimum inhibitory concentration (MIC); assay type: cell-based; conditions: Enterococcus faecium
Ent. faecium P-1 = experiment: Minimum inhibitory concentration (MIC); assay type: cell-based; conditions: Enterococcus faecium, P1
Ent. faecium P-2 = experiment: Minimum inhibitory concentration (MIC); assay type: cell-based; conditions: Enterococcus faecium, P2
Ent. faecium VR-1 = experiment: Minimum inhibitory concentration (MIC); assay type: cell-based; conditions: Enterococcus faecium, VR1; Ent. faecium VR-1 (resistant to vancomycin)
Ent. hirae 55 = experiment: Minimum inhibitory concentration (MIC); assay type: cell-based; conditions: Enterococcus hirae
Ent. durans 4939H = experiment: Minimum inhibitory concentration (MIC); assay type: cell-based; conditions: Enterococcus durans
Escherichia coli 9632 = experiment: Minimum inhibitory concentration (MIC); assay type: cell-based
E. coli super sen. 2231 = experiment: Minimum inhibitory concentration (MIC); assay type: cell-based; conditions: Escherichia coli
[3] = tested on: Pseudomonas aeruginosa M35; experiment: Minimum inhibitory concentration (MIC); assay type: cell-based
[4] = Solubility (physico-chemical properties); assay type: physicochemical; conditions: solvents in which soluble
[5] = tested on: vancomycin- and teicoplanin-resistant strains; experiment: Antibiotic activity against resistant strains; assay type: cell-based

Q: Which results are given for `C/C(=C\CC(O)CC(O)CCC(C)C(O)C(C)C(O)CCCC(O)C(C)C(O)/C(C)=C/C(C)C(=O)/C(C)=C/C(O)C(O)CC(O)CC(OC1OC(C)C(O)C(N)C1O)C(C)CCC(O)CC(O)CCC(C)C(O)C(C)C(O)C(C)C)C(=O)C1=C(O)/C(=C/C(C)C)N(C)C1=O` (stereo not shown) [Vancoresmycin]?
A: MIC [1]: 0.05 µg/mL (≈ 0.0372 µM); MIC (S. aureus 20240): 0.05 µg/mL (≈ 0.0372 µM); MIC (S. aureus E-710): 0.1 µg/mL (≈ 0.0744 µM); MIC (S. aureus SG511): 0.05 µg/mL (≈ 0.0372 µM); MIC (S. aureus 3066): 0.1 µg/mL (≈ 0.0744 µM); MIC (S. warneri 6563 II (2)): 0.1 µg/mL (≈ 0.0744 µM); MIC (S. aureus E-712): 0.1 µg/mL (≈ 0.0744 µM); MIC (S. aureus 20424): 0.1 µg/mL (≈ 0.0744 µM); MIC (S. aureus Chantot 31153): 0.05 µg/mL (≈ 0.0372 µM); MIC (S. aureus Wein 11): 0.05 µg/mL (≈ 0.0372 µM); MIC (S. aureus Wein 12): 0.05 µg/mL (≈ 0.0372 µM); MIC (S. aureus 503(Mers)): 0.025 µg/mL (≈ 0.0186 µM); MIC (S. aureus Brussel 4115): 0.05 µg/mL (≈ 0.0372 µM); MIC (S. aureus MLS-16): 0.39 µg/mL (≈ 0.29 µM); MIC (S. haemolyticus 809): 0.05 µg/mL (≈ 0.0372 µM); MIC (S. epidermidis 825): 0.1 µg/mL (≈ 0.0744 µM); MIC (S. epidermidis 823): 0.2 µg/mL (≈ 0.149 µM); MIC (S. epidermidis 607): 0.1 µg/mL (≈ 0.0744 µM); MIC (S. epidermidis 5747 IW): 0.1 µg/mL (≈ 0.0744 µM); MIC [2]: 0.39 µg/mL (≈ 0.29 µM); MIC (Ent. faecalis D 21777): 0.39 µg/mL (≈ 0.29 µM); MIC (Ent. faecalis D 23241): 0.39 µg/mL (≈ 0.29 µM); MIC (Ent. faecalis D 756): 0.39 µg/mL (≈ 0.29 µM); MIC (Ent. faecalis D 26777): 0.39 µg/mL (≈ 0.29 µM); MIC (Ent. faecalis D 7F): 0.39 µg/mL (≈ 0.29 µM); MIC (Ent. faecium D-65): 0.39 µg/mL (≈ 0.29 µM); MIC (Ent. faecium 5601 (H)): 0.39 µg/mL (≈ 0.29 µM); MIC (Ent. faecium P-1): 0.39 µg/mL (≈ 0.29 µM); MIC (Ent. faecium P-2): 0.39 µg/mL (≈ 0.29 µM); MIC (Ent. faecium VR-1): 0.39 µg/mL (≈ 0.29 µM); MIC (Ent. hirae 55): 0.39 µg/mL (≈ 0.29 µM); MIC (Ent. durans 4939H): 0.39 µg/mL (≈ 0.29 µM); MIC (Escherichia coli 9632): > 100 µg/mL; MIC (E. coli super sen. 2231): > 100 µg/mL; MIC [3]: > 100 µg/mL; Solubility [4]: Methanol, DMSO; antibiotic activity [5]: active
